Each molecule was assayed against T1, human PAH with the R408W mutation (A375 R408W cells) (Homo sapiens, UniProt P00439, R408W) (assay: Cell Based Phenylalanine Flux Assay). Details: A375 R408W cells; 24 hrs with compound, then 20 μM sepiapterin and 800 μM 13C9,15N-Phenylalanine for 4 hours; 13C-Tyrosine by LC-MS; average where tested multiple times.
T1 construct: expressed in transfected cells
T1 sequence (P00439 1-452 R408W): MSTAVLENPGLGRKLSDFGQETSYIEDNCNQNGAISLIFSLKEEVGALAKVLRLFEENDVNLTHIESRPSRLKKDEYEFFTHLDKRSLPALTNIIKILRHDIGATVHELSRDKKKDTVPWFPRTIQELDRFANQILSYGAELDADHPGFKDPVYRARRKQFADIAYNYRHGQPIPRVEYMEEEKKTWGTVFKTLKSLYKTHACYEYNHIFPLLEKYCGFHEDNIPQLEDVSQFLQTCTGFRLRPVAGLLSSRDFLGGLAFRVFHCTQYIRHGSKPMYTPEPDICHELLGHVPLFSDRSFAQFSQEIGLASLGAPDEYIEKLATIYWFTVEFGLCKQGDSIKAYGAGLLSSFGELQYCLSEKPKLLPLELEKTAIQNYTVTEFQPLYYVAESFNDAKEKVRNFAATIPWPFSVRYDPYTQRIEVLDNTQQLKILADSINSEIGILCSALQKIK
Summary of the method: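 Stable R408W PAH A375 cells: 24 h compound pretreatment in duplicate, then 4 h with 800 μM isotope-labelled Phe and 20 μM sepiapterin. Labelled Tyr output by LC-MS; AC50 averaged where repeated.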

Compound	AC50 [nM]
CN1CCN(c2ccc3c(C(=O)N4CCc5[nH]cnc5[C@@H]4c4nc5cc(F)ccc5o4)cnn3c2)CC1 [Example 66, (R)-(4-(5-fluorobenzo[d]oxazol-2-yl)-6,7-dihydro-1H-imidazo[4,5-c]pyridin-5(4H)-yl)(6-(4-methylpiperazin-1-yl)pyrazolo[1,5-a]pyridin-3-yl)methanone]	≥ 5000
Cn1cnc(-c2nc(C(F)(F)F)c(C(=O)N3CCc4[nH]cnc4[C@@H]3c3nc4cc(F)ccc4o3)o2)c1 [Example 789, (R)-(4-(5-fluorobenzo[d]oxazol-2-yl)-6,7-dihydro-1H-imidazo[4,5-c]pyridin-5(4H)-yl)(2-(1-methyl-1H-imidazol-4-yl)-4-(trifluoromethyl)oxazol-5-yl)methanone]	1000 to 5000
O=C(c1ocnc1C(F)(F)F)N1CCc2[nH]cnc2[C@H]1c1nc2cc(Br)ccc2o1 [Example 147, (S)-(4-(5-bromobenzo[d]oxazol-2-yl)-6,7-dihydro-1H-imidazo[4,5-c]pyridin-5(4H)-yl)(4-(trifluoromethyl)oxazol-5-yl)methanone]	≤ 500
CNc1cn2ncc(C(=O)N3CCc4[nH]cnc4[C@@H]3c3nc4cc(F)ccc4o3)c2cc1Cl [Example 206, (R)-(5-chloro-6-(methylamino)pyrazolo[1,5-a]pyridin-3-yl)(4-(5-fluorobenzo[d]oxazol-2-yl)-6,7-dihydro-1H-imidazo[4,5-c]pyridin-5(4H)-yl)methanone]	1000 to 5000
O=C(c1oc(-c2ccccn2)nc1C(F)F)N1CCc2[nH]cnc2[C@@H]1c1nc2cc(F)ccc2o1 [Example 86, (R)-(4-(difluoromethyl)-2-(pyridin-2-yl)oxazol-5-yl)(4-(5-fluorobenzo[d]oxazol-2-yl)-6,7-dihydro-1H-imidazo[4,5-c]pyridin-5(4H)-yl)methanone]	1000 to 5000
O=C(c1cnc(-c2ccccn2)o1)N1CCc2[nH]cnc2[C@@H]1c1nc2cc(F)ccc2o1 [Example 12, (R)-(4-(5-fluorobenzo[d]oxazol-2-yl)-6,7-dihydro-1H-imidazo[4,5-c]pyridin-5(4H)-yl)(2-(pyridin-2-yl)oxazol-5-yl)methanone]	1000 to 5000
CC(O)c1nc(Cl)c(C(=O)N2CCc3[nH]cnc3[C@@H]2c2nc3cc(F)ccc3o2)o1 (single isomer, unassigned) [Example 234]	1000 to 5000
Cn1cc(-c2ccc3c(C(=O)N4CCc5[nH]cnc5[C@H]4c4nc5cccc(F)c5o4)cnn3c2)cn1 [Example 383, (S)-(4-(7-fluorobenzo[d]oxazol-2-yl)-6,7-dihydro-1H-imidazo[4,5-c]pyridin-5(4H)-yl)(6-(1-methyl-1H-pyrazol-4-yl)pyrazolo[1,5-a]pyridin-3-yl)methanone]	≤ 500
CC(C)(O)c1nc(C(F)F)c(C(=O)N2CCc3[nH]cnc3[C@H]2c2nc3cc(Cl)ccc3o2)o1 [Example 375, (S)-(4-(5-chlorobenzo[d]oxazol-2-yl)-6,7-dihydro-1H-imidazo[4,5-c]pyridin-5(4H)-yl)(4-(difluoromethyl)-2-(2-hydroxypropan-2-yl)oxazol-5-yl)methanone]	500 to 1000
O=C([C@@H]1CC1(F)F)N1CCc2[nH]cnc2[C@@H]1c1nc2cc(F)ccc2o1 [Example 62, ((S)-2,2-difluorocyclopropyl)((R)-4-(5-fluorobenzo[d]oxazol-2-yl)-6,7-dihydro-1H-imidazo[4,5-c]pyridin-5(4H)-yl)methanone]	1000 to 5000
O=C(c1ocnc1C(F)F)N1CCc2[nH]cnc2[C@@H]1c1nc2cccc(F)c2o1 [Example 900, (R)-(4-(difluoromethyl)oxazol-5-yl)(4-deuterium-4-(7-fluorobenzo[d]oxazol-2-yl)-6,7-dihydro-1H-imidazo[4,5-c]pyridin-5(4H)-yl)methanone]	500 to 1000
O=C(c1cnn(-c2ccccn2)c1)N1CCc2[nH]cnc2[C@@H]1c1nc2cc(F)ccc2o1 [Example 880, (R)-(4-(5-fluorobenzo[d]oxazol-2-yl)-6,7-dihydro-1H-imidazo[4,5-c]pyridin-5(4H)-yl)(1-(pyridin-2-yl)-1H-pyrazol-4-yl)methanone]	1000 to 5000
Cc1cccc2nc([C@@H]3c4nc[nH]c4CCN3C(=O)c3nnc(-c4cnn(C)c4)o3)oc12 [Example 565, (S)-(5-(1-methyl-1H-pyrazol-4-yl)-1,3,4-oxadiazol-2-yl)(4-(7-methylbenzo[d]oxazol-2-yl)-6,7-dihydro-1H-imidazo[4,5-c]pyridin-5(4H)-yl)methanone]	500 to 1000
Cn1cncc1-c1nc(C(F)F)c(C(=O)N2CCc3[nH]cnc3[C@H]2c2nc3ccccc3o2)o1 [Example 764, (S)-(4-(benzo[d]oxazol-2-yl)-6,7-dihydro-1H-imidazo[4,5-c]pyridin-5(4H)-yl)(4-(difluoromethyl)-2-(1-methyl-1H-imidazol-5-yl)oxazol-5-yl)methanone]	≤ 500
COc1cccc2nc([C@H]3c4nc[nH]c4CCN3C(=O)c3ccnn3C)oc12 [Example 750, (R)-(4-(7-methoxybenzo[d]oxazol-2-yl)-6,7-dihydro-1H-imidazo[4,5-c]pyridin-5(4H)-yl)(1-methyl-1H-pyrazol-5-yl)methanone]	1000 to 5000
O=C(c1ocnc1CC(F)F)N1CCc2[nH]cnc2[C@@H]1c1nc2cc(F)ccc2o1 [Example 866, (R)-(4-(2,2-difluoroethyl)oxazol-5-yl)(4-(5-fluorobenzo[d]oxazol-2-yl)-6,7-dihydro-1H-imidazo[4,5-c]pyridin-5(4H)-yl)methanone]	500 to 1000
Cc1ccc2oc([C@H]3c4nc[nH]c4CCN3C(=O)c3ncc(Cl)s3)nc2c1 [Example 2, (R)-(5-chlorothiazol-2-yl)(4-(5-methylbenzo[d]oxazol-2-yl)-6,7-dihydro-1H-imidazo[4,5-c]pyridin-5(4H)-yl)methanone]	≥ 5000
CC(C)(O)c1nc(Cl)c(C(=O)N2CCc3[nH]cnc3[C@H]2c2nc3ccc(F)cc3o2)o1 [Example 269, (S)-(4-chloro-2-(2-hydroxypropan-2-yl)oxazol-5-yl)(4-(6-fluorobenzo[d]oxazol-2-yl)-6,7-dihydro-1H-imidazo[4,5-c]pyridin-5(4H)-yl)methanone]	500 to 1000
O=C(c1ocnc1C(F)F)N1CCc2[nH]cnc2[C@@H]1c1nc2c(F)cccc2o1 [Example 170, (R)-(4-(difluoromethyl)oxazol-5-yl)(4-(4-fluorobenzo[d]oxazol-2-yl)-6,7-dihydro-1H-imidazo[4,5-c]pyridin-5(4H)-yl)methanone]	500 to 1000

Same assay, conditions: A375 cells expressing R408W PAH; 24 hrs with compound, then 20 μM sepiapterin and 800 μM 13C9,15N-Phenylalanine for 4 hours; 13C-Tyrosine by LC-MS; average where tested multiple times

Compound	AC50 [nM]
O=C(C1CC1(F)F)N1CCc2[nH]cnc2C1c1nc2cc(F)ccc2o1 (stereo not shown)	≥ 5000
Cn1cnc(-c2nnc(C(=O)N3CCc4[nH]cnc4C3c3nc4cccc(C(F)(F)F)c4o3)o2)c1 (stereo not shown)	1000 to 5000
Cc1ccc2nc(C3c4nc[nH]c4CCN3C(=O)c3ocnc3C#N)oc2c1 (stereo not shown)	1000 to 5000
Cn1ncnc1C(=O)N1CCc2[nH]cnc2C1c1nc2cccc(F)c2o1 (stereo not shown)	1000 to 5000
CC(C)(O)c1cc(C(=O)N2CCc3[nH]cnc3C2c2nc3cc(F)ccc3o2)on1 (stereo not shown)	1000 to 5000
Cc1nc(-c2cnn(C)c2)sc1C(=O)N1CCc2[nH]cnc2C1c1nc2cc(F)ccc2o1 (stereo not shown)	≥ 5000
Cc1nc(CN(C)C)oc1C(=O)N1CCc2[nH]cnc2C1c1nc2cc(F)ccc2o1 (stereo not shown)	≥ 5000
Cc1cccc2nc(C3c4nc[nH]c4CCN3C(=O)c3ccnn3C3CC3)oc12 (stereo not shown)	1000 to 5000
Cc1ccc2nc(C3c4nc[nH]c4CCN3C(=O)c3nnc(C(C)(C)O)o3)oc2c1 (stereo not shown)	≥ 5000
